We go through 1 compound from patent US6413782B1, “Methods of manufacturing high-throughput screening systems” (priority 1996, dated 2002).

In the assay the target is β-galactosidase (Escherichia coli, UniProt P00722). Kind of assay: Enzyme inhibitor screen in planar chip format (continuous flow, fluorogenic substrate FDG). Particulars: IPTG 200 mM in inhibitor well; β-Galactosidase 180 U/ml; substrate FDG 400 μM; 20 mM Tris pH 8.5; versus buffer control. The assay is classed as biochemical. How it is done: The numbers adjacent the channels represent the lengths of each channel in millimeters. Two voltage states were applied to the ports of the chip. […] A control experiment was also run in which buffer was placed into the inhibitor well.
β-galactosidase, sequence (P00722 2-1024): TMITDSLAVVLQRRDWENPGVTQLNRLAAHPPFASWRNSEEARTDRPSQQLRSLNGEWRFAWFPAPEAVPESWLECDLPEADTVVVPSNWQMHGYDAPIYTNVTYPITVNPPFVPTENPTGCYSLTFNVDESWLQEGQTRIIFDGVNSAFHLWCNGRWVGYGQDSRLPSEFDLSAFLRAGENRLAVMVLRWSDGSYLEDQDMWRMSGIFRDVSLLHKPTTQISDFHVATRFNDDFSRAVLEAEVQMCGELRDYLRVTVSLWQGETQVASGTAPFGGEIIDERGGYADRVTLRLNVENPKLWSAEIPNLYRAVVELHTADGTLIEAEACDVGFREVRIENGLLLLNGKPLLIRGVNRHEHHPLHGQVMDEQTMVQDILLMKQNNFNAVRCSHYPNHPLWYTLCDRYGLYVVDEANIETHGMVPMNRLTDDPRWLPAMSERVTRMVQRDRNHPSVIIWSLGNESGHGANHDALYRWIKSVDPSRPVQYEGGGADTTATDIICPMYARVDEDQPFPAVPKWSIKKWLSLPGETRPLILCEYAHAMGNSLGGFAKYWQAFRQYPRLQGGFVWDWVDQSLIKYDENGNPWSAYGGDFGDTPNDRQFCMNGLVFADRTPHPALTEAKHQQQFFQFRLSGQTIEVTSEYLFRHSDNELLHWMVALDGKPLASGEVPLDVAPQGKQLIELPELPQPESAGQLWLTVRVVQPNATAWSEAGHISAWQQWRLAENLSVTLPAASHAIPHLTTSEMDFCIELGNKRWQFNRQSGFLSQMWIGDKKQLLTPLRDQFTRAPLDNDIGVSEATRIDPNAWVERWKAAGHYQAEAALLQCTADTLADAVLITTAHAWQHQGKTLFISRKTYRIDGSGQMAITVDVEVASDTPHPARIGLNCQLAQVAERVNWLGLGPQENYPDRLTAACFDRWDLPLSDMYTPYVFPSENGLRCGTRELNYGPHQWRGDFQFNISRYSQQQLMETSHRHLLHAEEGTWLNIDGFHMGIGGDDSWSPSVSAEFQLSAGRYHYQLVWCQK
Enzyme: β-Galactosidase (180 U/ml in 50 mM Tris/ 300 μg/ml BSA
Substrate: Fluorescein-digalactoside (FDG) 400 μM
Buffer: 20 mM Tris, pH 8.5
Enzyme and substrate were continually pumped through the main channel from their respective ports under both voltage states. Inhibitor or Buffer were delivered into the main channel alternately from their respective wells by alternating between voltage state 1 and voltage state 2. When no inhibitor was present at the detection end of the main channel, a base line level of fluorescent product was produced. […] FIG. 9B a superposition of the two data segments from FIG. 9A, directly comparing the inhibitor data with control (buffer) data.

Take `CC(C)S[C@@H]1O[C@H](CO)[C@H](O)[C@H](O)[C@H]1O` [IPTG]: the “fluorescent signal upon introduction of inhibitor (inhibition of the enzyme/substrate interaction)” value is “greatly reduced”.
